Values after ≈ are worked out from the molar mass of the structure shown. Read-outs that look alike come from different tables or passages of the source.
Columns and labels:
[1] = tested on: Lichtheimia corymbifera 272; experiment: Antifungal microdilution broth MIC, L. corymbifera; format: cell-based; settings: Lichtheimia corymbifera, 272; 48 h incubation; read-out: MIC LC 48 h
[2] = tested on: Escherichia coli CCM 4517; experiment: Antibacterial microdilution broth MIC, E. coli; format: cell-based; settings: Escherichia coli, CCM4517; 48 h incubation; read-out: MIC EC 48 h
Candida glabrata 20/I = experiment: Antifungal microdilution broth MIC, C. glabrata; format: cell-based; settings: Nakaseomyces glabratus
[3] = tested on: Aspergillus fumigatus 231; experiment: Antifungal microdilution broth MIC, A. fumigatus; format: cell-based; settings: Aspergillus fumigatus, 231; 48 h incubation; read-out: MIC AF 48 h
[4] = tested on: Klebsiella pneumoniae D 11750/08
Candida krusei E28 = experiment: Antifungal microdilution broth MIC, C. krusei; format: cell-based; settings: Pichia kudriavzevii, E28; 48 h incubation; read-out: MIC CK 48 h
Trichosporon asahii 1188 = experiment: Antifungal microdilution broth MIC, T. asahii; format: cell-based
[5] = tested on: Mycobacterium tuberculosis 331/88 (H37Rv); experiment: In vitro antimycobacterial MIC, M. tuberculosis; format: cell-based
[6] = tested on: Trichophyton interdigitale 445; experiment: Antifungal microdilution broth MIC, T. interdigitale; format: cell-based
Candida tropicalis 156 = experiment: Antifungal microdilution broth MIC, C. tropicalis; format: cell-based
[7] = tested on: Candida albicans ATCC 44859; experiment: Antifungal microdilution broth MIC, C. albicans; format: cell-based
[8] = tested on: Pseudomonas aeruginosa CCM 1961; experiment: Antibacterial microdilution broth MIC, P. aeruginosa; format: cell-based; settings: Pseudomonas aeruginosa, CCM1961; 48 h incubation; read-out: MIC PA 48 h
[9] = tested on: Staphylococcus aureus CCM 4516/08; experiment: Antibacterial microdilution broth MIC, S. aureus; format: cell-based; settings: Staphylococcus aureus, CCM4516; 48 h incubation; read-out: MIC SA 48 h
M. kansasii 6509/96 = experiment: In vitro antimycobacterial MIC, M. kansasii clinical isolate; format: cell-based; settings: Mycobacterium kansasii
[10] = tested on: ESBL-positive Klebsiella pneumoniae J 14368/08
[11] = tested on: Enterococcus faecalis J 14365/08; experiment: Antibacterial microdilution broth MIC, E. faecalis; format: cell-based; settings: Enterococcus faecalis, J14365/08; 48 h incubation; read-out: MIC EF 48 h
[12] = tested on: Mycobacterium avium 330/88; experiment: In vitro antimycobacterial MIC, M. avium; format: cell-based
[13] = tested on: Mycobacterium kansasii 235/80; experiment: In vitro antimycobacterial MIC, M. kansasii 235/80; format: cell-based
[14] = tested on: Staphylococcus epidermidis H 6966/08; experiment: Antibacterial microdilution broth MIC, S. epidermidis; format: cell-based; settings: Staphylococcus epidermidis
[15] = 48 h incubation, read-out: MIC CG 48 h
[16] = Trichosporon asahii, 1188, 48 h incubation, read-out: MIC TA 48 h
[17] = 336 h, 14 d incubation, read-out: MIC Mtb. 331/88 14 d
[18] = 504 h, 21 d incubation, read-out: MIC Mtb. 331/88 21 d
[19] = Candida tropicalis, 156, 48 h incubation, read-out: MIC CT 48 h
[20] = ATCC44859, 48 h incubation, read-out: MIC CA 48 h
[21] = 6509/96, 168 h, 7 d incubation, read-out: MIC M. kansasii 6509/96 7 d
[22] = 6509/96, 336 h, 14 d incubation, read-out: MIC M. kansasii 6509/96 14 d
[23] = 6509/96, 504 h, 21 d incubation, read-out: MIC M. kansasii 6509/96 21 d
[24] = 330/88, 336 h, 14 d incubation, read-out: MIC M. avium 330/88 14 d
[25] = 330/88, 504 h, 21 d incubation, read-out: MIC M. avium 330/88 21 d
[26] = 235/80, 168 h, 7 d incubation, read-out: MIC M. kansasii 235/80 7 d
[27] = 235/80, 336 h, 14 d incubation, read-out: MIC M. kansasii 235/80 14 d
[28] = 235/80, 504 h, 21 d incubation, read-out: MIC M. kansasii 235/80 21 d
[29] = Trichophyton interdigitale, 445, 72 h incubation, read-out: MIC TI 72 h
[30] = Trichophyton interdigitale, 445, 120 h incubation, read-out: MIC TI 120 h

Row | SMILES | MIC [1] [µM] | MIC [2] [µM] | MIC (Candida glabrata 20/I; [15]) [µM] | MIC [3] [µM] | MIC KP 24 h [4] [µM] | MIC KP 48 h [4] [µM] | MIC (Candida krusei E28) [µM] | MIC (Trichosporon asahii 1188; [16]) [µM] | MIC [5, 17] [µM] | MIC [5, 18] [µM] | MIC (Candida tropicalis 156; [19]) [µM] | MIC [7, 20] [µM] | MIC (M. kansasii 6509/96; [21]) [µM] | MIC (M. kansasii 6509/96; [22]) [µM] | MIC (M. kansasii 6509/96; [23]) [µM] | MIC [12, 24] [µM] | MIC [12, 25] [µM] | MIC [13, 26] [µM] | MIC [13, 27] [µM] | MIC [13, 28] [µM] | other results
1 | COc1ccc(O)c(C=Nc2ccc(S(=O)(=O)Nc3ncccn3)cc2)c1 [Compound 2h, 4-[(2-Hydroxy-5-methoxybenzylidene)amino]-N-(pyrimidin-2-yl)benzenesulfonamide] | > 500 | > 500 | 500 (≈ 192 µg/mL) | > 500 | >500 | >500 | > 500 | 500 (≈ 192 µg/mL) | 32 (≈ 12.3 µg/mL) | 62.5 (≈ 24 µg/mL) | 500 (≈ 192 µg/mL) | 500 (≈ 192 µg/mL) | 16 (≈ 6.15 µg/mL) | 16 (≈ 6.15 µg/mL) | 32 (≈ 12.3 µg/mL) | 125 (≈ 48.1 µg/mL) | 125 (≈ 48.1 µg/mL) | 16 (≈ 6.15 µg/mL) | 32 (≈ 12.3 µg/mL) | 62.5 (≈ 24 µg/mL) | MIC ([6]; Trichophyton interdigitale, 445, 72 h, read-out: MIC TI 72 h): 62.5 µM (≈ 24 µg/mL); MIC ([6]; Trichophyton interdigitale, 445, 120 h, read-out: MIC TI 120 h): 62.5 µM (≈ 24 µg/mL); MIC ([6]; Trichophyton interdigitale, 445, read-out: MIC for T. interdigitale): 62.5 µM (≈ 24 µg/mL); MIC [8]: 500 µM (≈ 192 µg/mL); MIC [9]: 500 µM (≈ 192 µg/mL); MIC KP-E 24 h [10]: >500 µM; MIC KP-E 48 h [10]: >500 µM; MIC [11]: > 500 µM; MIC ([14]; H6966/08, 24 h, read-out: MIC SE 24 h): 62.5 µM (≈ 24 µg/mL); MIC ([14]; H6966/08, 48 h, read-out: MIC SE 48 h): 62.5 µM (≈ 24 µg/mL)
2 | O=S(=O)(Nc1ncccn1)c1ccc(N=Cc2cccc(Cl)c2O)cc1 [Compound 2l, 4-[(3-Chloro-2-hydroxybenzylidene)amino]-N-(pyrimidin-2-yl)benzenesulfonamide] | > 500 | > 500 |  | 250 (≈ 97.2 µg/mL) | >500 | >500 | 250 (≈ 97.2 µg/mL) |  | 32 (≈ 12.4 µg/mL) | 62.5 (≈ 24.3 µg/mL) |  |  | 16 (≈ 6.22 µg/mL) | 16 (≈ 6.22 µg/mL) | 32 (≈ 12.4 µg/mL) | 125 (≈ 48.6 µg/mL) | 250 (≈ 97.2 µg/mL) | 16 (≈ 6.22 µg/mL) | 32 (≈ 12.4 µg/mL) | 62.5 (≈ 24.3 µg/mL) | MIC (Candida glabrata 20/I; 24 h, read-out: MIC CG 24 h): 125 µM (≈ 48.6 µg/mL); MIC (Candida glabrata 20/I; 48 h, read-out: MIC CG 48 h): 125 µM (≈ 48.6 µg/mL); MIC (Trichosporon asahii 1188; Trichosporon asahii, 1188, 24 h, read-out: MIC TA 24 h): 125 µM (≈ 48.6 µg/mL); MIC (Trichosporon asahii 1188; Trichosporon asahii, 1188, 48 h, read-out: MIC TA 48 h): 125 µM (≈ 48.6 µg/mL); MIC [6, 29]: 31.2 µM (≈ 12.2 µg/mL); MIC [6, 30]: 31.2 µM (≈ 12.2 µg/mL); MIC (Candida tropicalis 156; Candida tropicalis, 156, 24 h, read-out: MIC CT 24 h): 125 µM (≈ 48.6 µg/mL); MIC (Candida tropicalis 156; Candida tropicalis, 156, 48 h, read-out: MIC CT 48 h): 125 µM (≈ 48.6 µg/mL); MIC ([7]; ATCC44859, 24 h, read-out: MIC CA 24 h): 62.5 µM (≈ 24.3 µg/mL); MIC ([7]; ATCC44859, 48 h, read-out: MIC CA 48 h): 62.5 µM (≈ 24.3 µg/mL); MIC [8]: > 500 µM; MIC [9]: > 500 µM; MIC KP-E 24 h [10]: >500 µM; MIC KP-E 48 h [10]: >500 µM; MIC [11]: > 500 µM; MIC ([14]; H6966/08, 48 h incubation, read-out: MIC SE 48 h): > 500 µM
3 | OC(Cn1cncn1)(Cn1cncn1)c1ccc(F)cc1F [FLU, fluconazole, reference compound] | > 500 |  | 500 (≈ 153 µg/mL) | > 500 |  |  | 250 (≈ 76.6 µg/mL) | 500 (≈ 153 µg/mL) |  |  | > 500 | 0.24 (≈ 0.0735 µg/mL) |  |  |  |  |  |  |  |  | MIC [6, 29]: 7.81 µM (≈ 2.39 µg/mL); MIC [6, 30]: 125 µM (≈ 38.3 µg/mL)
4 | NNC(=O)c1ccncc1 [INH, isoniazid, reference compound] |  |  |  |  |  |  |  |  | 0.5 (≈ 0.0686 µg/mL) | 1 (≈ 0.137 µg/mL) |  |  | 8 (≈ 1.1 µg/mL) | 8 (≈ 1.1 µg/mL) | 8 (≈ 1.1 µg/mL) | > 250 | > 250 | > 250 | > 250 | > 250 | 

— publication PMC6151383 (Molecules : A Journal of Synthetic Chemistry and Natural …, 2017)
